For assay [1], the system named is tdMEFs. In words: Combinatorial chemical screening for neural reprogramming of tdMEFs (Sox2/Nestin co-expression). It is filed as cell-based, mouse. The conditions noted are these: for generation of Sox2/Nestin double-positive cells: added to the six-molecule condition; for Sox2/Nestin double-positive cells: primary screening, single molecule added to basal condition (LDN, A83, CHIR, bFGF), ten days post-treatment. As to the method:
(§1) Cells were washed once with 1×PBS and fixed with 4% paraformaldehyde at room temperature for 10 minutes, followed by permeabilization with 0.2% Triton X-100 in 1×PBS for 10 min, and blocking with 7.5% BSA for at least 1 hour. All primary antibodies were diluted in 1×PBS with 7.5% BSA, and the incubation was performed at 4° C. overnight. The cells were washed with 1×PBS five times for 10 min each at room temperature. The secondary antibodies, labeled with Alexa-488, Alexa-555, and Alexa-647, were purchased from Invitrogen, and were diluted into 1×PBS with 7.5% BSA. Incubation with the secondary antibodies was for 1 hour at room temperature, followed by five 10-minute washes with 1×PBS. The nuclei were stained with DAPI. Living cell staining was used for cell-surface marker O4, as described by Najm et al. (Nat. Biotechnol. 31: 426-433 (2013)). Antibodies used in this study are listed below in Table 1.
Briefly, tdMEFs were plated into neural reprogramming basal medium at 15,000 cells per well in 24-well plate, and after an overnight culture, individual small molecules from a focused chemical collection, including epigenetic modifiers, metabolism regulators, and signaling modulators, were added. Ten days post-treatment, cells were fixed, immune-stained, and analyzed for co-expression of Sox2 and Nestin, two typical NSC markers (FIG. 1A-1B).

The test system of assay [2] is Hedgehog (Hh) signaling. The conditions noted are these: read-out: EC50 activation of Hedgehog (Hh) signaling; cited from earlier work.
The target of assay [3] is SAPK2/p38 (Homo sapiens, UniProt Q16539). To be noted: CK1 and ALK5 inhibitor versus SAPK2/p38; cited from earlier work.
Assay [4] relates to tdMEF. In words: M9 chemical conversion of tdMEFs to ciNSLCs (Sox2/Nestin immunostaining). The format is cell-based, mouse. The conditions noted are these: FIG. 2G. On the procedure: To convert the fibroblasts into ciNSLCs, MEFs were seeded into Matrigel (Corning, 1:40 dilution)-coated 24-well plates at 15,000 per well, or 1-1.5 million in 15-cm dishes in MEF medium (Dulbecco's modified Eagle's medium supplemented with 10% FBS, 0.1 mM nonessential amino acids, and 2 mM Glutamax) for the first 24 hours. […] M9 medium was refreshed every other day. After a 10-day induction, cells were cultured in neural stem cells medium (NSC medium). Afterwards, the cells could be repeatedly propagated in NSC medium.
as §1, with “Antibodies used in this study are listed below in Table 1.” left out

Assay [5] deals with tdMEF. In words: Inhibitor assay: pathway inhibitors added to M9 reprogramming. The format is cell-based, mouse. To be noted: Sox2+/Nestin+ cells at day 10. On the procedure:
When performing the reprogramming, small molecule inhibitors, including 0.5 μM PD0325901, 10 μM SP 600125, 5 μM SB203580, 5 μM LY294002, or 2 μM LDE 225, was added in the freshly made M9 culture medium. DMSO was used in basal medium as control. The medium was changed every 2 days, and the Sox2+/Nestin+ cells were analyzed by immunostaining by day 10 after treatment.

In assay [6] the target is Smoothened (Smo) receptor (Homo sapiens, UniProt Q99835). The conditions noted are these: cited from earlier work.
Assay [7] deals with Hedgehog signaling pathway in Shh-light 2 cells. To be noted: read-out: EC50 activation of Hedgehog signaling pathway; cited from earlier work.
The subject of assay [8] is A53T alpha-synuclein clearance in PC-12 cells. The conditions noted are these: independent of rapamycin treatment; cited from earlier work.
Assay [9] deals with ciNSLC-derived neurons. It is filed as cell-based, mouse.

For orientation: pEC50 means the EC50 on a negative log10 scale, so that one unit is a factor of ten. As a reminder, the pKd is the Kd on a negative log10 scale, so that one unit is a factor of ten.

pEC50, pKd: −log10 of the molar value. Where a name gives a salt, the structure may show the parent alone.

Sequence of SAPK2/p38 (Q16539 whole entry): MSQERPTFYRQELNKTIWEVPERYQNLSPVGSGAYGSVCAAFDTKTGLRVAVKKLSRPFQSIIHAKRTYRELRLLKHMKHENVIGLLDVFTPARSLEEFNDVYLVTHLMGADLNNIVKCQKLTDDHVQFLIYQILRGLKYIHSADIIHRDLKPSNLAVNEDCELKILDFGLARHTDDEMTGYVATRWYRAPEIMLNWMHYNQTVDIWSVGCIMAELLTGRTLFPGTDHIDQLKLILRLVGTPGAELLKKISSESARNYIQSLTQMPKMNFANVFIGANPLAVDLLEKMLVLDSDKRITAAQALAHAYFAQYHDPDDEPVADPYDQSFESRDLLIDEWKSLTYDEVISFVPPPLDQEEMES
Sequence of Smoothened (Smo) receptor (Q99835 28-787): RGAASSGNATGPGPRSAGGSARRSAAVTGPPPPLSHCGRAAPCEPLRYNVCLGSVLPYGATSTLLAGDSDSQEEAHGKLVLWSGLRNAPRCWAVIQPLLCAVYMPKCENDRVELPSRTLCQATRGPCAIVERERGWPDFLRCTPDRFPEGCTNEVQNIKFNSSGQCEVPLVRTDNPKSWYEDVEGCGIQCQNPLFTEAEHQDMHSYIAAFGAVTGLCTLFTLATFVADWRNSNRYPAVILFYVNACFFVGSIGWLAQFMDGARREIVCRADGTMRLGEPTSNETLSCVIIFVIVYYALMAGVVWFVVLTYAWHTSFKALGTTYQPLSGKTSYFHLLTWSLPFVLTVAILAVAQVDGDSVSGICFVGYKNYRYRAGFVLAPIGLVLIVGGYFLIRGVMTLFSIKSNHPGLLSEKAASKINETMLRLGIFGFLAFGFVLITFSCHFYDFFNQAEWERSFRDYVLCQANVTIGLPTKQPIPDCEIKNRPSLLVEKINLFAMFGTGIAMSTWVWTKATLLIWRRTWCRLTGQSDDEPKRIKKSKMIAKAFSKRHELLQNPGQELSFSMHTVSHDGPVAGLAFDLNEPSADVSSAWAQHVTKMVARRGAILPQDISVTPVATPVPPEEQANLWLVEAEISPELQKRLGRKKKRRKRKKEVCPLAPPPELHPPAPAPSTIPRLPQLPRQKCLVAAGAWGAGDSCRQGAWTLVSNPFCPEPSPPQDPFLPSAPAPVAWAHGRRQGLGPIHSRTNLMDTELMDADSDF

Take `N[C@@H]1C[C@H]1c1ccccc1` (racemic) [Parnate, tranylcypromine sulfate]: the “generation of Sox2/Nestin double-positive cells” value in assay [1] is recorded as “further enhanced”.

Consider `O=C(O)[C@@H](Cc1c[nH]c2ccccc12)N1C(=O)c2ccccc2C1=O` (stereo in doubt) [RG108, N-Phthalyl-L-tryptophan], for which the “generation of Sox2/Nestin double-positive cells” value in [1] is given as “further enhanced”.

Take `CC(C)CCC[C@](C)(O)[C@H]1CC[C@H]2[C@@H]3CC=C4C[C@@H](O)CC[C@]4(C)[C@H]3CC[C@@]21C` [(3β)-Cholest-5-ene-3,20-diol]: the negative logarithm of the EC50 (pEC50) in assay [2] is about 5.52.

Turning to `NC(=O)c1ccc(-c2nc(-c3ccc4c(c3)OCCO4)c(-c3ccccn3)[nH]2)cc1` [D 4476, 4-[4-(2,3-Dihydro-1,4-benzodioxin-6-yl)-5-(2-pyridinyl)-1H-imidazol-2-yl]benzamide], in assay [3], the “selectivity over SAPK2/p38” value is “greater than 20 fold”.

On to `CNC1CCC(N(Cc2cccc(-c3ccncc3)c2)C(=O)c2sc3c(F)ccc(F)c3c2Cl)CC1` (stereo not shown) [Hh-Ag 1.5, 3-chloro-4,7-difluoro-N-(4-(methylamino)cyclohexyl)-N-(3-(pyridin-4-yl)benzyl)benzo[b]thiophene-2-carboxamide], for which the Sox2/Nestin double-positive cells in assay [1] is reported as 3.68%. Besides, the “reprogramming efficiency when the component is removed from the M9 cocktail” value in assay [4] is given as “affected the ciNSLC induction most”.

For `Cc1c(C(=O)Nc2ccc(N3C[C@@H](C)O[C@@H](C)C3)nc2)cccc1-c1ccc(OC(F)(F)F)cc1` [LDE-225], the “reduction of reprogramming efficiency” value in [5] (2 μM added to M9 medium) is “about 6 fold”.

For `O=c1cc(N2CCOCC2)oc2c(-c3ccccc3)cccc12` [LY294002], the “reduction of reprogramming efficiency” value in assay [5] (5 μM LY294002 added to M9 medium) is listed as about 4 fold.

`O=C(NOC[C@H](O)CO)c1ccc(F)c(F)c1Nc1ccc(I)cc1F` [PD0325901]: the “reduction of reprogramming efficiency” value in assay [5] (0.5 μM added to M9 medium) is “about 9 fold”.

For the compound `CN[C@H]1CC[C@H](N(Cc2cccc(-c3ccncc3)c2)C(=O)c2sc3ccccc3c2Cl)CC1` [SAG, 3-Chloro-N-[trans-4-(methylamino)cyclohexyl]-N-[[3-(4-pyridinyl)phenyl]methyl]benzo[b]thiophene-2-carboxamide], the pKd in [6] is 7.23. Also, the pEC50 in [7] is about 8.52.

As to `C[S+]([O-])c1ccc(-c2nc(-c3ccc(F)cc3)c(-c3ccncc3)[nH]2)cc1` (stereo not shown) [SB203580], the “reduction of reprogramming efficiency” value in assay [5] (5 μM SB203580 added to M9 medium) is listed as about 5 fold.

Take `C=CCNc1ncnc2ccc(Br)cc12` [SMER28, 6-bromo-N-2-propenyl-4-quinazolinamine]: the “generation of Sox2/Nestin double-positive cells” value in assay [1] is recorded as “further enhanced”. Also, the A53T alpha-synuclein clearance result in assay [8] is “enhances”.

In the case of `Oc1c2ccccc2c2c3c(cccc13)N=N2` [SP600125], the “reduction of reprogramming efficiency” value in [5] (10 μM added to M9 medium) was about 6 fold.

Regarding `CC1=C(/C=C/C(C)=C/C=C/C(C)=C/C(=O)O)C(C)(C)CCC1` [retinoic acid], the Sox2/Nestin double-positive cells in assay [1] was found to be 1.26%.

`CC[N+](CC)(CC)CC` [tetraethylammonium]: the persistent outward current entry in assay [9] is recorded as “blocked”.

Regarding `NC1=N[C@H](O)[C@H]2[C@H]3O[C@]4(O)O[C@@H]([C@@H](O)[C@@]2(N1)[C@@H]4O)[C@]3(O)CO` [tetrodotoxin], the inactivating inward current result in assay [9] was “blocked”.

In the case of “bFGF: basic fibroblast growth factor (bFGF; also known as FGF2)”, in assay [4], the “reprogramming efficiency when the component is removed from the M9 cocktail” value is reported as “affected the ciNSLC induction most”.

(Values after patent US12104169B2, “Chemical reprogramming to generate neuronal cells” (The J. David Gladstone Institutes, a testamentary trust …, priority 2015, dated 2024).)
